This passage reports IC50 and Ki results from ChEMBL document CHEMBL1909046, “DrugMatrix in vitro pharmacology data”.

The term IC50 denotes the concentration that gives 50% inhibition. What is called Ki is the dissociation constant of the complex between target and ligand, obtained from inhibition or displacement.

Assay [1] has as its target cGMP-specific 3',5'-cyclic phosphodiesterase (Homo sapiens, UniProt O76074). Put plainly: DRUGMATRIX: Phosphodiesterase PDE5 enzyme inhibition (substrate: [3H]cGMP + cGMP). It counts as tissue-based, Platelet. Particulars: platelet; Not Active = under 50% inhibition at 10 µM.
The nature of assay [2]: DRUGMATRIX: Imidazoline I2, Central radioligand binding (ligand: [3H] Idazoxan). Particulars: Not Active = under 50% inhibition at 10 µM. The assay is classed as cell membranes, Rattus norvegicus, Wistar, Cerebral cortex, Membrane.
Assay [3] in a line: DRUGMATRIX: Calcium Channel Type L, Dihydropyridine radioligand binding (ligand: [3H] Nitrendipine). It counts as cell membranes, Rattus norvegicus, Wistar, Cerebral cortex, Membrane. Particulars: Not Active = under 50% inhibition at 10 µM.
Another assay deals with Histamine H2 receptor (Homo sapiens, UniProt P25021). The assay is classed as cell membranes, CHO-K1, Membrane. Particulars: cho-k1.
Sequence of Histamine H2 receptor (P25021 whole entry): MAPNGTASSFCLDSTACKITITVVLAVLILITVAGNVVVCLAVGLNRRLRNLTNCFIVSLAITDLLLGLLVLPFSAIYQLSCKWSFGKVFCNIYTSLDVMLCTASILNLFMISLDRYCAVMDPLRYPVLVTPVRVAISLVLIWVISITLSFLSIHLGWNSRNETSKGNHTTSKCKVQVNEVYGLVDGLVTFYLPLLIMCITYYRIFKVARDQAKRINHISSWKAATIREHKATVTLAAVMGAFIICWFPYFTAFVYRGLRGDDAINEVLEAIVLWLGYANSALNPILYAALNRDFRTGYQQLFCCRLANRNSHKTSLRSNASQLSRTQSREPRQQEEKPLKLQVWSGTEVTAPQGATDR
In a further assay the target is Carbonic anhydrase 2 (Homo sapiens, UniProt P00918). Put plainly: DRUGMATRIX: Carbonic Anhydrase II enzyme inhibition (substrate: 4-Nitrophenyl acetate (4-NPA)). It counts as tissue-based. Particulars: erythrocyte; Not Active = under 50% inhibition at 10 µM.
The target in assay [4] is Delta-type opioid receptor (Homo sapiens, UniProt P41143). The assay is classed as cell membranes, Membrane. Particulars: hek293. Further: in other assays of this panel Not Active means under 50% inhibition at 10 µM.
Sequence of Delta-type opioid receptor (P41143 whole entry): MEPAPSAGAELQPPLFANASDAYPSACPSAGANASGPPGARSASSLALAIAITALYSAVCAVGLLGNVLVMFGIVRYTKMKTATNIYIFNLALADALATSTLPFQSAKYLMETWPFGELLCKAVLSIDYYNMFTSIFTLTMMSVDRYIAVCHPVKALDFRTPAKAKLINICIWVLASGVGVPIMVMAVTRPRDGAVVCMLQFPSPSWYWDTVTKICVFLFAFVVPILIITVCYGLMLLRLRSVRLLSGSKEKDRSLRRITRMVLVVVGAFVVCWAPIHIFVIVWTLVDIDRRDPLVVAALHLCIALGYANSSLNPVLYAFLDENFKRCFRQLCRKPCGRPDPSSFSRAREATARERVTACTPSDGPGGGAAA
Assay [5] concerns the target Mitogen-activated protein kinase 3 (Homo sapiens, UniProt P27361). Put plainly: DRUGMATRIX: Protein Serine/Threonine Kinase, ERK1 enzyme inhibition (substrate: Myelin Basic Protein). Particulars: Not Active = under 50% inhibition at 10 µM. The arrangement: species or system Escherichia coli.

Sequence of Mitogen-activated protein kinase 3 (P27361 whole entry): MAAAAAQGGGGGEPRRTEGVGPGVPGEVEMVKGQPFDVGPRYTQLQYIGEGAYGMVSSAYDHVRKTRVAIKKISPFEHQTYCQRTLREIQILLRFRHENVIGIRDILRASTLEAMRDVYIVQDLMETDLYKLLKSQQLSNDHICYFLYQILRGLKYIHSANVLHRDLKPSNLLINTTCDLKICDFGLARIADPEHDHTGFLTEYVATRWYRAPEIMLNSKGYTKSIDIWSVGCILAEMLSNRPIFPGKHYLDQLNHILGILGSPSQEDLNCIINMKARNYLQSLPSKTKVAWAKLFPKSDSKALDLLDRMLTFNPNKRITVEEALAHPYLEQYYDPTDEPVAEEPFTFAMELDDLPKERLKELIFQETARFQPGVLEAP

GRAMICIDIN: the IC50 result (in assay [1]; in assay [2]; in assay [3]; on Histamine H2 receptor; on Carbonic anhydrase 2; in assay [4]) was “Not Active” in each case. Further, the IC50 result in assay [5] is on record as “Not Active”. In addition, the Ki result (in assay [1]; in assay [2]; in assay [3]; at Histamine H2 receptor; at Carbonic anhydrase 2; in assay [4]) was “Not Active” throughout. Besides, the Ki entry in assay [5] is “Not Active”.

Consider `CC(=O)[C@@]1(O)CC[C@H]2[C@@H]3CCC4=CC(=O)CC[C@]4(C)[C@H]3CC[C@@]21C` [HYDROXYPROGESTERONE], for which the IC50 result (in assay [1]; in assay [2]; in assay [3]; at Histamine H2 receptor; at Carbonic anhydrase 2; in assay [4]) was “Not Active” in each case. In addition, the IC50 in assay [5] (read-out: IC50) was found to be 3.16 µM. The Ki result in assay [2] and in assay [3] was “Not Active” in each case.

With `O=C(N/N=C/c1ccc([N+](=O)[O-])o1)c1cc([N+](=O)[O-])cc([N+](=O)[O-])c1O` [NIFURSOL], the IC50 result (in assay [1]; in assay [2]; in assay [3]; against Histamine H2 receptor; against Carbonic anhydrase 2; in assay [4]) was “Not Active” each time. Further, in assay [5], the IC50 result is “Not Active”. Besides, the Ki entry in assay [2] and in assay [3] was “Not Active” throughout.

Take `CC(C)NCC(O)COc1cccc2[nH]ccc12` (stereo not given) [PINDOLOL]: the IC50 result (in assay [1]; in assay [2]; in assay [3]; on Histamine H2 receptor; against Carbonic anhydrase 2; in assay [4]) was “Not Active” in each case. In addition, in assay [5], the IC50 result was “Not Active”. Further, the Ki result in assay [2] and in assay [3] was “Not Active” in each case.

As for `Oc1cccc(O)c1O` [PYROGALLOL], the IC50 entry (in assay [1]; in assay [2]; in assay [3]; at Histamine H2 receptor; against Carbonic anhydrase 2; in assay [4]) was “Not Active” in each case. Also, in assay [5], the IC50 result is reported as “Not Active”. Also, the Ki entry in assay [2] and in assay [3] was “Not Active” in each case.

With `COc1cc2nc(N3CCN(C(=O)c4ccco4)CC3)nc(N)c2cc1OC` [PRAZOSIN], the IC50 entry (in assay [1]; in assay [3]; at Histamine H2 receptor; against Carbonic anhydrase 2; in assay [4]; in assay [5]) was “Not Active” each time. Also, the Ki in assay [2] (read-out: Ki) was 0.633 µM; in assay [3] it was “Not Active”.

As to `NNc1nncc2ccccc12` [HYDRALAZINE], the IC50 entry (in assay [1]; in assay [2]; in assay [3]; at Histamine H2 receptor; at Carbonic anhydrase 2; in assay [4]) was “Not Active” in each case. In assay [5], the IC50 result is “Not Active”. In addition, the Ki result in assay [2] and in assay [3] was “Not Active” each time.

Consider `C[C@]12C=CC(=O)C=C1CC[C@@H]1[C@@H]2[C@@H](O)C[C@@]2(C)[C@H]1CC[C@]2(O)C(=O)CO` [PREDNISOLONE], for which the half-maximal inhibitory concentration (IC50) entry (in assay [1]; in assay [2]; in assay [3]; against Histamine H2 receptor; against Carbonic anhydrase 2; in assay [4]) was “Not Active” in each case. The IC50 entry in assay [5] was “Not Active”. In addition, the Ki entry in assay [2] and in assay [3] was “Not Active” in each case.

With `NCCCC(O)(P(=O)(O)O)P(=O)(O)O` [ALENDRONIC ACID], the IC50 entry (in assay [1]; in assay [2]; in assay [3]; against Histamine H2 receptor; on Carbonic anhydrase 2; in assay [4]) was “Not Active” throughout. For the same compound, the IC50 entry in assay [5] is recorded as “Not Active”. Moreover, the Ki result in assay [2] and in assay [3] was “Not Active” throughout.
